According to patent US11161846B2, “Substituted pyrazolo[4,3-b]pyridines and their use as GluN2B receptor modulators” (JANSSEN PHARMACEUTICA NV, priority 2019, dated 2021):

Experiments:
[1] = Liver microsomal stability (extraction ratio); assay type: in vitro ADME; conditions: test compound 1 μM; 0.5 mg/mL liver microsomes, NADPH, 37° C.; species not given (method: mouse, rat, and human)
Experimental: Protocol for Liver Microsomal Stability (Extraction Ratio)
Liver Microsomal Stability.
Microsomal stability studies (Chrovian et al, “1H-Pyrrolo[3,2-b]pyridine GluN2B-Selective Negative Allosteric Modulators”. ACS Med Chem Lett. 2019 Jan. 10; 10(3):261-266) were conducted on a Biomek® FX Robotic Liquid Handling Workstation (Beckman Coulter, Brea, Calif.), which consists of a 96-channel pipette head, a 12-position workstation deck, and a plate incubator. Test compounds (1 μm) were spiked in a reaction mix consisting of 100 mM potassium phosphate buffer (pH 7.4), 3 mM MgCl2, and 0.5 mg/mL liver microsomes from mouse, rat, and human (BD Gentest). The reaction was brought to 37° C. and initiated by adding NADPH to a final concentration of 1 mM. After mixing on the plate deck, 50 μL aliquots were excised from the reaction plate at 0, 5, 10, 20, 40, and 60 min and quenched with four volumes of acetonitrile spiked with […] of the internal standard phenytoin. Quenched plates were centrifuged at 5700 rpm for 10 min at 4° C., and supernatant was diluted 1:3 in water before LC/MS/MS analysis. The compound half-lives were derived from plots of the ln of percent remaining compound over time to determine the intrinsic clearance. The predicted hepatic clearance was derived from the intrinsic clearance value using equations from the well-stirred model (Current Drug Metabolism, 2008, 9, 940-951), where no correction was made plasma protein binding and the blood to plasma concentration ratio was assumed to be one. The extraction ratio (ER) was calculated by dividing the predicted hepatic clearance by species blood flow (Q), where Q is 90, 55, and 21.7 mL/min/kg for mouse, rat and human, respectively.

[2] = target: T1, human GluN1/GluN2B NMDA receptors (Homo sapiens, UniProt Q05586+Q13224); assay: Calcium flux (FLIPR) assay on cloned human NR1/GluN2B ion channels expressed in mammalian cells, standard assay; assay type: cell-based; conditions: glutamate ~EC40 and 10 μM glycine, stable cell line with Tet-On induced expression
T1 construct: expressed in transfected cells
T1 sequence (Q13224 27-1484, other chains not shown): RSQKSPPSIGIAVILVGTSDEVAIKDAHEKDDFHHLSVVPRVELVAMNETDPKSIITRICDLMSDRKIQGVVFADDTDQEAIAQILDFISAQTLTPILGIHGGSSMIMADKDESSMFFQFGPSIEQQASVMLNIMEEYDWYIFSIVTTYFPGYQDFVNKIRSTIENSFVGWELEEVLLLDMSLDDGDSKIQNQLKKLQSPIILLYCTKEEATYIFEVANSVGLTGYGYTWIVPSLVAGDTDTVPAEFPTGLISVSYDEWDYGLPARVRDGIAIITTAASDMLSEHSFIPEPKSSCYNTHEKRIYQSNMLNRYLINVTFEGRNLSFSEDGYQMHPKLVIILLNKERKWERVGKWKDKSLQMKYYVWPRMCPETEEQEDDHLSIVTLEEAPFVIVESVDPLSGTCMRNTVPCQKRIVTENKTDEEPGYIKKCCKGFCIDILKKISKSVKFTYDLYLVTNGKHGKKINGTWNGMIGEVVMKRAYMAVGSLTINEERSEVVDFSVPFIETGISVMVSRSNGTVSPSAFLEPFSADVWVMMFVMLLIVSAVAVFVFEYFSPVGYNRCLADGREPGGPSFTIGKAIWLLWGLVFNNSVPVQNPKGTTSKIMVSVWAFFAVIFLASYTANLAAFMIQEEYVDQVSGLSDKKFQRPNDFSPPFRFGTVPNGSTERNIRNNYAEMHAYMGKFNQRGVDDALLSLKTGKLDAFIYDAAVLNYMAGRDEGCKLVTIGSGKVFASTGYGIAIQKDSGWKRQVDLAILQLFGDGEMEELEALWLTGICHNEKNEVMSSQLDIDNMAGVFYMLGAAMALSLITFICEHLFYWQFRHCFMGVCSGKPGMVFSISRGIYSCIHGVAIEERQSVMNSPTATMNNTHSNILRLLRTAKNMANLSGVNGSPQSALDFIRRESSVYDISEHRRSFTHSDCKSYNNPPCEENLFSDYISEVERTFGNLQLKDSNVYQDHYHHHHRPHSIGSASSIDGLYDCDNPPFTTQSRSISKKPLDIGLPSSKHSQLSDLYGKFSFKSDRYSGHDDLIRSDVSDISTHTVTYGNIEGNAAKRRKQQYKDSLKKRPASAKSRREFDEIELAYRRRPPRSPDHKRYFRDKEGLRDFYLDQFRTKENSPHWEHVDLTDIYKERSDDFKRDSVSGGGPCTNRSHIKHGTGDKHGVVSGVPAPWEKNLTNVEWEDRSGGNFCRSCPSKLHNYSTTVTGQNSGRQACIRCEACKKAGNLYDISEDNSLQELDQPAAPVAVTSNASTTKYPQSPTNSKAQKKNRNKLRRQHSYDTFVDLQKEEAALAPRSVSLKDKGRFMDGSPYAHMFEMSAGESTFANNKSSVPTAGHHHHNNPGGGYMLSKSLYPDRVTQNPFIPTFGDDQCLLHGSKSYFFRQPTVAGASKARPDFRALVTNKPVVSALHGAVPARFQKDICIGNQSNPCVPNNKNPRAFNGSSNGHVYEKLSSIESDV
How it was run: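 Tet-On-induced stable mammalian line loaded with Calcium 5 dye (0.5 mM MgCl2 loading buffer), then assayed in pH 7.4 buffer with 137 mM NaCl, 4 mM KCl, 2 mM CaCl2. Compound was added for 5 min, then glutamate (~EC40) plus 10 µM glycine for 5 min. FLIPR fluorescence was normalized to control wells.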

Compound	Extraction Ratio @ 1 μM [1]	IC50 [2] [nM]
CCN1CC(Cn2ncc3ncc(-c4ccc(F)c(C(F)F)c4)cc32)OC1=O (racemic) [Example 131, (RS)-5-[[6-[3-(Difluoromethyl)-4-fluoro-phenyl]pyrazolo[4,3-b]pyridin-1-yl]methyl]-3-ethyl-oxazolidin-2-one]	0.58	193
CC[S+]([O-])Cn1ncc2ncc(-c3ccc(F)c(C(F)F)c3)cc21 (single isomer, unassigned) [Example 85, (R*)-6-(3-(Difluoromethyl)-4-fluorophenyl)-1-((ethylsulfinyl)methyl)-1H-pyrazolo[4,3-b]pyridine]	0.46	66
CCC(=O)Cn1ncc2ncc(-c3ccc(F)c(C(F)F)c3)cc21 [Example 4, 1-[6-[3-(Difluoromethyl)-4-fluoro-phenyl]pyrazolo[4,3-b]pyridin-1-yl]butan-2-one]	0.66	10
CCC(=O)Cn1nc(C)c2ncc(-c3ccc(F)c(C(F)F)c3)cc21 [Example 36, 1-(6-(3-(Difluoromethyl)-4-fluorophenyl)-3-methyl-1H-pyrazolo[4,3-b]pyridin-1-yl)butan-2-one]	0.72	27
CCC(=O)Cn1ncc2ncc(-c3cc(F)c(F)c(F)c3)cc21 [Example 42, 1-[6-(3,4,5-Trifluorophenyl)pyrazolo[4,3-b]pyridin-1-yl]butan-2-one]	0.63	27
O=C(Cn1ncc2ncc(-c3cccc(C(F)F)c3)cc21)C1CC1 [Example 61, 1-Cyclopropyl-2-[6-[3-(difluoromethyl)phenyl]pyrazolo[4,3-b]pyridin-1-yl]ethanone]	0.43	12
Cc1c(F)ccc(-c2cnc3cnn(CC(=O)C4CC4)c3c2)c1C [Example 78, 1-Cyclopropyl-2-[6-(4-fluoro-2,3-dimethyl-phenyl)pyrazolo[4,3-b]pyridin-1-yl]ethanone]	0.52	85
CN1C[C@@H](Cn2ncc3ncc(-c4ccc(F)c(C(F)F)c4)cc32)OC1=O [Example 130, (5S)-5-[[6-[3-(Difluoromethyl)-4-fluoro-phenyl]pyrazolo[4,3-b]pyridin-1-yl]methyl]-3-methyl-oxazolidin-2-one]		478
CCN1C[C@@H](Cn2ncc3ncc(-c4ccc(F)c(C(F)F)c4)cc32)OC1=O [Example 132, (S)-5-[[6-[3-(Difluoromethyl)-4-fluoro-phenyl]pyrazolo[4,3-b]pyridin-1-yl]methyl]-3-ethyl-oxazolidin-2-one]		1430
CCN1C[C@H](Cn2ncc3ncc(-c4ccc(F)c(C(F)F)c4)cc32)OC1=O [Example 133, (R)-5-[[6-[3-(Difluoromethyl)-4-fluoro-phenyl]pyrazolo[4,3-b]pyridin-1-yl]methyl]-3-ethyl-oxazolidin-2-one]		204
O=C(Cn1ncc2ncc(-c3ccc(F)c(C(F)F)c3)cc21)c1cccs1 [Example 137, 2-[6-[3-(Difluoromethyl)-4-fluoro-phenyl]pyrazolo[4,3-b]pyridin-1-yl]-1-(2-thienyl)ethanone]		36
O=C(Cn1ncc2ncc(-c3ccc(F)c(C(F)F)c3)cc21)c1ccsc1 [Example 138, 2-[6-[3-(Difluoromethyl)-4-fluoro-phenyl]pyrazolo[4,3-b]pyridin-1-yl]-1-(3-thienyl)ethanone]		100
O=C(Cn1ncc2ncc(-c3ccc(F)c(C(F)F)c3)cc21)c1ccncc1 [Example 139, 2-[6-[3-(Difluoromethyl)-4-fluoro-phenyl]pyrazolo[4,3-b]pyridin-1-yl]-1-(4-pyridyl)ethanone]		118
O=C(Cn1ncc2ncc(-c3ccc(F)c(C(F)F)c3)cc21)c1ncc(F)cc1F [Example 141, 2-(6-(3-(Difluoromethyl)-4-fluorophenyl)-1H-pyrazolo[4,3-b]pyridin-1-yl)-1-(3,5-difluoropyridin-2-yl)ethan-1-one]		409
O=C(Cn1ncc2ncc(-c3ccc(F)c(C(F)F)c3)cc21)c1cnccn1 [Example 142, 2-(6-(3-(Difluoromethyl)-4-fluorophenyl)-1H-pyrazolo[4,3-b]pyridin-1-yl)-1-(pyrazin-2-yl)ethan-1-one]		74

More lines, now with the values ahead:

Extraction Ratio @ 1 μM [1]	IC50 [2] [nM]	Compound
0.50	80	CC[S+]([O-])Cn1ncc2ncc(-c3cccc(C(F)(F)F)c3F)cc21 (racemic) [Example 86, (RS)-1-(Ethylsulfinylmethyl)-6-[2-fluoro-3-(trifluoromethyl)phenyl]pyrazolo[4,3-b]pyridine]
0.64	34	CC(=O)Cn1ncc2ncc(-c3ccc(F)c(OC(F)F)c3)cc21 [Example 25, 1-[6-[3-(Difluoromethoxy)-4-fluoro-phenyl]pyrazolo[4,3-b]pyridin-1-yl]propan-2-one]
0.61	30	CCC(=O)Cn1ncc2ncc(-c3cccc(C(F)(F)F)c3F)cc21 [Example 38, 1-[6-[2-Fluoro-3-(trifluoromethyl)phenyl]pyrazolo[4,3-b]pyridin-1-yl]butan-2-one]
	> 3000	O=C1O[C@H](Cn2ncc3ncc(-c4ccc(F)c(C(F)F)c4)cc32)CN1C1CC1 [Example 135, (S)-3-Cyclopropyl-5-[[6-[3-(difluoromethyl)-4-fluoro-phenyl]pyrazolo[4,3-b]pyridin-1-yl]methyl]oxazolidin-2-one]
	997	O=C1O[C@@H](Cn2ncc3ncc(-c4ccc(F)c(C(F)F)c4)cc32)CN1C1CC1 [Example 136, (R)-3-Cyclopropyl-5-[[6-[3-(difluoromethyl)-4-fluoro-phenyl]pyrazolo[4,3-b]pyridin-1-yl]methyl]oxazolidin-2-one]
	191	O=C(Cn1ncc2ncc(-c3ccc(F)c(C(F)F)c3)cc21)c1ncccc1F [Example 140, 2-(6-(3-(Difluoromethyl)-4-fluorophenyl)-1H-pyrazolo[4,3-b]pyridin-1-yl)-1-(3-fluoropyridin-2-yl)ethan-1-one]
